From ChEMBL document CHEMBL1649413, “Structure-activity relationship of 4(5)-aryl-2-amino-1H-imidazoles, N1-substituted 2-aminoimidazoles and imidazo[1,2-a]pyrimidinium salts as inhibitors of biofilm formation by Salmonella typhimurium and Pseudomonas aeruginosa” (J Med Chem, 2011)
The source made the active and inactive calls. No cut-off for these calls is given here.

Tests used:
[1] = system: Salmonella typhimurium; experiment: Antimicrobial activity against Salmonella Typhimurium ATCC 14028 assessed as inhibition of planktonic growth at 40 uM at 25 degC after 24 hrs; type: functional, organism-based; conditions: Salmonella enterica subsp. enterica serovar Typhimurium
[2] = system: Pseudomonas aeruginosa; experiment: Antimicrobial activity against Pseudomonas aeruginosa assessed as inhibition of planktonic growth at 20 uM at 25 degC after 24 hrs; type: functional, organism-based
[3] = system: Salmonella typhimurium; experiment: Antimicrobial activity against Salmonella Typhimurium ATCC 14028 assessed as inhibition of planktonic growth at 20 uM at 25 degC after 24 hrs; type: functional, organism-based; conditions: Salmonella enterica subsp. enterica serovar Typhimurium
[4] = system: Pseudomonas aeruginosa; experiment: Antimicrobial activity against Pseudomonas aeruginosa assessed as inhibition of planktonic growth at 40 uM at 25 degC after 24 hrs; type: functional, organism-based
[5] = system: Pseudomonas aeruginosa; experiment: Antibiofilm activity in Pseudomonas aeruginosa assessed as inhibition of biofilm formation at 25 degC after 24 hrs; type: functional, organism-based
[6] = system: Salmonella typhimurium; experiment: Antibiofilm activity in Salmonella Typhimurium ATCC 14028 assessed as inhibition of biofilm formation at 25 degC after 24 hrs; type: functional, organism-based, Salmonella enterica subsp. enterica serovar Typhimurium; conditions: Salmonella enterica, ATCC 14028, 24 h
[7] = system: Salmonella typhimurium; experiment: Antimicrobial activity against Salmonella Typhimurium ATCC 14028 assessed as inhibition of planktonic growth at 10 uM at 25 degC after 24 hrs; type: functional, organism-based; conditions: Salmonella enterica subsp. enterica serovar Typhimurium
[8] = system: Salmonella typhimurium; experiment: Antimicrobial activity against Salmonella Typhimurium ATCC 14028 assessed as inhibition of planktonic growth at 4 uM at 25 degC after 24 hrs; type: functional, organism-based; conditions: Salmonella enterica subsp. enterica serovar Typhimurium
[9] = system: Pseudomonas aeruginosa; experiment: Antimicrobial activity against Pseudomonas aeruginosa assessed as inhibition of planktonic growth at 5 uM at 25 degC after 24 hrs; type: functional, organism-based
[10] = system: Pseudomonas aeruginosa; experiment: Antimicrobial activity against Pseudomonas aeruginosa assessed as inhibition of planktonic growth at 10 uM at 25 degC after 24 hrs; type: functional, organism-based
[11] = system: Salmonella typhimurium; experiment: Antimicrobial activity against Salmonella Typhimurium ATCC 14028 assessed as inhibition of planktonic growth at 400 uM at 25 degC after 24 hrs; type: functional, organism-based; conditions: Salmonella enterica subsp. enterica serovar Typhimurium

| IC50 [5] [µM] | IC50 [6] [µM] | Structure (SMILES) | inhibition [1] | inhibition [2] | inhibition [3] | inhibition [4] | inhibition [7] | inhibition [8] | inhibition [9] | inhibition [10] | inhibition [11] |
| --- | --- | --- | --- | --- | --- | --- | --- | --- | --- | --- | --- |
| 19.5 | 35.7 | CCCCCCCC[n+]1c(-c2ccc(F)cc2)cn2cccnc21.[O-][Cl+3]([O-])([O-])[O-] | inactive | inactive | inactive | Active |  |  |  |  |  |
| 27.3 | 6 | CCCCCCCCCCCCCn1c(-c2ccccc2)cnc1N | Active | inactive |  | inactive | Active | inactive |  |  |  |
| > 400 | 167 | CCCCCCCCCCCCn1c(-c2ccc(-c3ccccc3)cc2)cnc1N |  |  |  | inactive |  |  | inactive |  |  |
| 6.6 | 12.5 | Nc1ncc(-c2ccc(-c3ccccc3)cc2)n1C1CCCCCC1 | Active |  | Active |  | Active |  |  |  |  |
| 69.7 | 12.6 | Nc1ncc(-c2ccc(-c3ccccc3)cc2)n1C1CCCCC1 | Active |  | Active |  | inactive |  |  |  |  |
| 48.7 | 12.9 | Nc1ncc(-c2ccc(Cl)cc2)n1C1CCCCCCC1 | Active |  | Active |  | inactive |  |  |  |  |
| 15 | 6.1 | CCCCCCCCCCn1c(-c2ccccc2)cnc1N |  | inactive | Active |  | Active | inactive |  | inactive |  |
| 41.6 | 21.1 | CCCCn1c(-c2ccc(-c3ccccc3)cc2)cnc1N | Active |  | Active |  |  |  |  |  |  |
| 4.9 | 29.1 | CCCCCCCCn1c(-c2ccc(S(C)(=O)=O)cc2)cnc1N | Active | inactive | inactive |  |  |  |  |  |  |
| 18.5 | 11.9 | CCCCCCCCn1c(-c2ccccc2)cnc1N |  | inactive | Active | inactive | inactive |  |  |  |  |
| 49.7 | 6.2 | CCCCCCCCCCCCn1c(-c2ccc(Cl)cc2)cnc1N |  |  | inactive |  | inactive | inactive |  |  |  |
|  | 29.2 | Nc1nc(-c2ccccc2)c(-c2ccc(C(F)(F)F)cc2)[nH]1 | inactive |  |  |  |  | inactive |  |  | Active |
| 8 | 4 | CCCCCCCCCn1c(-c2ccc(Cl)cc2)cnc1N |  | Active | Active |  | Active | inactive |  | inactive |  |
| 11.2 | 33.2 | Nc1ncc(-c2ccc(Cl)cc2)n1C1CCCCC1 |  | inactive |  | inactive |  |  | inactive |  |  |
| 4.5 | 176 | CC(C)n1c(-c2ccccc2)cnc1N |  |  |  |  |  |  | inactive | inactive |  |
| > 400 | > 800 | CCCCCCCCCCCCCn1c(-c2ccc(-c3ccccc3)cc2)cnc1N |  |  |  | inactive |  |  | inactive |  |  |
| 19.1 | 39.7 | CCCCCCn1c(-c2ccccc2)cnc1N |  | inactive |  | inactive |  |  |  |  |  |
| 16.3 | 7.2 | CCCCCCCCCCCn1c(-c2ccccc2)cnc1N | Active | inactive |  |  | Active | inactive |  | inactive |  |
| 6.8 | 12.2 | CCCCCCCn1c(-c2ccccc2)cnc1N |  | inactive |  | inactive |  |  | inactive |  |  |
| 2.1 | 51.9 | CCCCn1c(-c2ccccc2)cnc1N |  |  |  |  |  |  | inactive | inactive |  |
| 18.7 | 63.6 | CCCCCCCC[n+]1c(-c2ccc([N+](=O)[O-])cc2)cn2cccnc21.[O-][Cl+3]([O-])([O-])[O-] |  | inactive |  | Active |  |  |  | inactive |  |

| IC50 [5] [µM] | IC50 [6] [µM] | Structure (SMILES) | inhibition [1] | inhibition [2] | inhibition [3] | inhibition [4] | inhibition [7] | inhibition [8] | inhibition [9] | inhibition [10] | inhibition [11] |
| --- | --- | --- | --- | --- | --- | --- | --- | --- | --- | --- | --- |
|  | 182 | Nc1nc(-c2ccc(F)cc2)c(C(=O)Nc2ccccc2)[nH]1 | inactive |  |  |  |  | inactive |  |  | Active |
| 25.2 | 9.3 | CCCCCCCn1c(-c2ccc(-c3ccccc3)cc2)cnc1N |  | Active | Active | Active | inactive |  |  |  |  |
| 8.9 | 3.3 | CCCCCCCCn1c(-c2ccc(-c3ccccc3)cc2)cnc1N | Active | inactive | Active |  |  | inactive |  | inactive |  |
| 22.3 | 4.1 | CCCCCCCCCCn1c(-c2ccc(Cl)cc2)cnc1N |  | inactive |  | inactive | Active | inactive |  |  |  |
| 4.9 | 10.8 | CCCCCCCCn1c(-c2ccc(F)cc2)cnc1N |  | Active | Active |  | inactive |  | inactive | Active |  |
| 12.7 | 3.8 | CCCCCCCC[n+]1c(-c2ccc(F)c(F)c2)cn2cccnc21.[O-][Cl+3]([O-])([O-])[O-] |  | Active |  | Active | Active | inactive |  | Active |  |
| 7 | 7.3 | CCCCCCCC[n+]1c(-c2cccc(Br)c2)cn2cccnc21.[O-][Cl+3]([O-])([O-])[O-] |  | inactive | Active | Active | inactive |  |  |  |  |
| 8.7 | 34.8 | CCCCCCCC[n+]1c(-c2ccc(OC)cc2)cn2cccnc21.[O-][Cl+3]([O-])([O-])[O-] | Active | inactive | Active | inactive |  |  |  | inactive |  |
| 9.3 | 20.7 | CCCCCCCC[n+]1c(-c2ccc(SC)cc2)cn2cccnc21.[O-][Cl+3]([O-])([O-])[O-] | Active | inactive | Active | Active |  |  |  |  |  |
|  | 3.7 | CCCCCCCCn1c(-c2ccc(Cl)c(Cl)c2)cnc1N |  |  |  |  | Active | inactive |  |  |  |
|  | 5 | CCCCCCCC[n+]1c(-c2ccc(-c3ccc(-c4ccccc4)cc3)cc2)cn2cccnc21.[O-][Cl+3]([O-])([O-])[O-] |  |  |  |  | Active | inactive |  |  |  |
| 16.7 | 57.8 | CCCCn1c(-c2ccc(Cl)cc2)cnc1N |  | inactive |  | inactive |  |  |  |  |  |
| 17.6 | 6.6 | CCCCCCCCn1c(-c2cccc3ccccc23)cnc1N |  | Active |  |  | inactive | inactive |  | inactive |  |
| 44 | 4.1 | CCCCCCCCCCCn1c(-c2ccc(Cl)cc2)cnc1N |  |  | Active |  | Active | inactive |  |  |  |
| 4 | 15.7 | Nc1ncc(-c2ccc(Cl)cc2)n1C1CCCCCC1 |  | inactive |  |  |  |  | inactive | inactive |  |
| 1.2 | 8.5 | CCCCCCCCn1c(-c2ccc(OC)cc2)cnc1N |  | inactive | Active |  | inactive |  |  |  |  |
| 40.6 | 11.2 | CCCCCCCCn1c(-c2cccc(Br)c2)cnc1N |  | inactive | Active | Active | inactive |  |  |  |  |
| 15.1 | 9.8 | O=[N+]([O-])c1ccc(-c2cn3cccnc3[n+]2C2CCCCCCCCCCC2)cc1.[O-][Cl+3]([O-])([O-])[O-] |  | Active | inactive | Active | inactive |  |  | inactive |  |
| 33.9 | 19.5 | CCCCCCCCCCCCCn1c(-c2ccc(Cl)cc2)cnc1N | inactive |  | inactive |  |  |  |  |  |  |
| 20.7 | 206 | CCn1c(-c2ccccc2)cnc1N |  | inactive |  | inactive |  |  |  |  |  |
| 3.2 | 22.9 | Nc1ncc(-c2ccc(-c3ccccc3)cc2)n1C1CCCCCCC1 |  | inactive | Active | inactive |  |  | inactive | inactive |  |
